Consider 9 compounds from patent US10039812B2, “Therapeutic for treating clostridium difficile infection” (priority 2012, dated 2018).

One data set concerns B. subtilis biofilms. The following applies: cited from earlier work.
The test system of data set [1] is C. difficile strain 630Δerm. In kind it is cell-based, Clostridium difficile. The following applies: for Effect on biofilm (disassembly): 3 μM D-tyrosine, 2 mM D-methionine, 5 mM D-tryptophan, 8.5 mM D-leucine, mixture 2.5 nM each (FIG. 12).
The test system of data set [2] is C. difficile strain R20291. In kind it is cell-based, Clostridium difficile.
In a further data set the test system is S. aureus. The following applies: cited from earlier work; for Biofilm disassembly: 10 μM, 100 μM and 500 μM.
Data set [3] concerns C. difficile 630Δerm biofilm. Put plainly: DNase, RNase and proteinase K digests of biofilm (floc) in liquid culture. The following applies: 15 minute treatment, room temperature.
Data set [4] deals with C. difficile strain 630Δerm. Put plainly: Inhibition of biofilm formation in TC flasks.
Data set [5] concerns C. difficile R20291 biofilm. As to the kind of experiment: DNase, RNase and proteinase K digests of biofilm in liquid culture. Particulars: 15 minutes.
For data set [6], the system named is 630Δerm C. difficile biofilms. Put plainly: DNase treatment of biofilms visualised by confocal microscopy. In kind it is cell-based, Clostridium difficile. Particulars: for Degradation of the biofilm (confocal microscopy): 15 minutes. As for the experimental part:
The untreated controls were incubated for 15 minutes with 0.15 M NaCl and washed with 1×PBS. These coverslips were mounted onto glass slides, a coverslip was applied over a 50% glycerol mounting media and these were sealed with clear nail varnish. The slides were visualised under oil immersion using a ×40 objective using a laser confocal microscope (Zeiss microscope).

Setting [7] is: 3 μM D-tyrosine, 2 mM D-methionine, 5 mM D-tryptophan, 8.5 mM D-leucine, mixture 2.5 nM each.
Where [8] appears, read: 10 μg/ml added prior to inoculation, 6 day incubation, static and shaking.

Like-named read-outs stand apart in the source and are kept apart here. Where no end group is shown, it is not given here.

For the compound `CC(C)C[C@@H](N)C(=O)O` [D-leucine], the Biofilm disassembly result in the data set with B. subtilis biofilms (setting [7]) was “disassembled”. Further, in data set [1], the “Effect on biofilm formation” value is listed as “ineffective”, the “Growth of the bacteria” value is given as “inhibited” and the “Effect on biofilm (disassembly)” value is “no significant effect”. Moreover, in data set [2], the “Effect on biofilm (disassembly)” value is “no significant effect”, the “Effect on biofilm formation” value is “ineffective” and the “Growth of the bacteria” value is on record as “reduced”.
For the compound `CSCC[C@@H](N)C(=O)O` [D-methionine], in the data set on B. subtilis biofilms (setting [7]), the Biofilm disassembly result was “disassembled”. Moreover, the “Effect on biofilm (disassembly)” value in data set [1] and in data set [2] was “no significant effect” throughout.
`N[C@H](Cc1ccccc1)C(=O)O` [D-phenylalanine]: the Biofilm disassembly entry in the data set on S. aureus is on record as “disassembled”.
Turning to `O=C(O)[C@H]1CCCN1` [D-proline], in the data set on S. aureus, the Biofilm disassembly entry is “disassembled”.
As to `N[C@H](Cc1c[nH]c2ccccc12)C(=O)O` [D-tryptophan], the Biofilm disassembly result in the data set with B. subtilis biofilms (setting [7]) is “disassembled”. Also, in data set [1], the Biofilm formation entry is recorded as “increased the biofilm formation”, the Disruption of biofilms result is “not disrupted” and the “Effect on biofilm (disassembly)” value is given as “no significant effect”. In data set [2], the Biofilm formation result is “increased the biofilm formation”, the Disruption of biofilms result is on record as “not disrupted” and the “Effect on biofilm (disassembly)” value was “no significant effect”.
Consider `N[C@H](Cc1ccc(O)cc1)C(=O)O` [D-tyrosine], for which the Biofilm disassembly entry with S. aureus and in the data set on B. subtilis biofilms (setting [7]) was “disassembled” each time. For the same compound, the “Effect on biofilm (disassembly)” value in data set [1] and in data set [2] was “no significant effect” in each case.
Turning to `NCCCNCCCN` [norspermidine], the Biofilm disassembly result with B. subtilis biofilms (norspermidine at 100, 50 and 25 μM) is “disassemble biofilms”. In data set [1], the Biofilm level result is reported as “significantly reduced”, the “Disassembly of biofilm performed in tissue culture flasks” value is “not disrupted”, the Disassembly of biofilms result is “does not disassemble biofilms” and the Viability entry is “slight decrease in viability”. Further, in data set [2], the “Biofilm formation on addition to biofilm cultures” value is on record as “enhances the biofilm formation” and the Disassembly of biofilms entry was “does not disassemble biofilms”.
With DNase, the “Degradation of the biofilm (floc produced in static culture)” value in data set [3] (100 ug/ml) and in data set [3] (1 mg/ml) was “Degradation of the biofilm was observed” in each case. In addition, in data set [4] (setting [8]), the “Bacterial growth (turbidity of media)” value is reported as “turbid, indicating bacterial growth”. In data set [4] (setting [8]), the “Biofilm formation (flocs or aggregates)” value was “no flocs or aggregates were observed”. Further, the “Formation of biofilm in liquid media” value in data set [4] (10 mg/ml in the growth media, incubated statically for six days (FIG. 9)) is reported as “inhibits the formation of biofilm”. Besides, the “Degradation of the biofilm” value in data set [5] (1 mg/ml) and in data set [5] was “degradation of the biofilm observed” each time. Moreover, the “Degradation of the biofilm (confocal microscopy)” value in data set [6] (1 ug DNase) and in data set [6] (10 ug DNase) was “incomplete degradation” throughout. Further, the “Degradation of the biofilms (confocal microscopy)” value in data set [6] (DNase for 15 minutes, BHIS and YP media, compared to untreated controls) is given as “biofilms were absent”.
As to “Human beta-defensin 3: cationic peptide shown to inhibit biofilm formation in S. aureus (GIINTLQKYYCRVRGGRCAVLSCLPKEEQIGKCSTRGRKCCRRKK; ends and bridges not checked; cysteine pairing not given here; UniProt P81534 23-67, looked up)”, the “Inhibition of biofilm formation” value with S. aureus is on record as “inhibit biofilm formation”.
